Assay results reported in US5449612A, “Process for identifying candida by means of chromogenic substances” (Serbio, priority 1990, dated 1995).
Residues, ends and D or L forms follow the SMILES beside them. *: point of attachment. pNA = O=[N+]([O-])c1ccc(N*)cc1

Experiments:
Candida tropicalis = assay: Tests on substrates against Candida tropicalis, colour reading on buffered gelose; format: cell-based
T. glabrata [1] = assay: Tests on substrates against T. glabrata, colour reading on buffered gelose; format: cell-based, Torulopsis glabrata; conditions: pH 6; also: key: -: none; +: weak; ++: moderate; +++: intense; ++++: very intense
Candida albicans = assay: Tests on substrates against Candida albicans, colour reading on buffered gelose; format: cell-based; conditions: Table I; medium pH 6.0, YNB, glucose, agar, gentamycin; coloration or fluorescence
C. tropicalis = assay: Diagnosis from isolated colonies on gelose 2/5; format: cell-based, Candida tropicalis
T. glabrata [2] = assay: Diagnosis from isolated colonies on gelose 2/5; format: cell-based, Torulopsis glabrata; also: key: -: none; +: weak; ++: moderate; +++: intense; ++++: very intense
C. albicans = assay: Diagnosis from isolated colonies on gelose 2/5; format: cell-based, Candida albicans; also: key: -: none; +: weak; ++: moderate; +++: intense; ++++: very intense
C. krusei = assay: Diagnosis from isolated colonies on gelose 2/5; format: cell-based, Candida krusei
Method: According to the afore-mentioned best mode of carrying out the invention, a culture medium containing the following ingredients is prepared; it is called gelose 2 below and is buffered to pH 6.0.
According to the afore-mentioned best mode of carrying out the invention, a culture medium containing the following ingredients is prepared; it is called gelose 5 below and is buffered to pH 6.0.
Several isolated strains of C. albicans, C. tropicalis, C. krusei, C. guillermondii, C. pseudotropicalis, C. parapsilosis, C. zeylanoides, T. glabrata and Trichosporon cutaneum were inoculated and incubated on the media of Examples 1 to 5. […] Part of the results obtained has been collated in Table VI below, where the TTC column relates to results of tests undertaken separately on a standard gelose medium containing TTC.
Several isolated strains of C. albicans, C. tropicalis, C. krusei, C. guillermondii and T. glabrata were inoculated and incubated on the media of Example 2 [containing either the substrate N-Ac-β-D-galactosaminide-PNP of the prior art, or the substrates H-L-PropNA.AcOH (specific for C. albicans), EM-L-Phg-L-ArgpNA.AcOH (specific for T. glabrata) and H-Gly-L-Pro-L-Arg-pNA.2AcOH (specific for C. krusei)]and of Example 5 (containing the substrate H-L-Pro-pNA.AcOH).

Candida krusei = assay: Tests on substrates against Candida krusei, colour reading on buffered gelose; format: cell-based; as to Reading at 24 h: key: -: none; +: weak; ++: moderate; +++: intense; ++++: very intense
[3] = test system: isolated strains of Candida albicans, Candida guillermondii, Candida intermedia, Candida parapsilosis, Candida pseudotropicalis, Candida stellatoidea, Candida …; conditions: YEAST-IDENT, liquid medium, 4 h at 37° C.; cited from earlier work

| SMILES | Specificity: interference with C. tropicalis (Candida tropicalis; Table I) | Reading at 24 h (Candida tropicalis; Table II, medium pH 6.0, YNB, glucose, agar, gentamycin) | C. TROPICALIS reading at 24 h (Candida tropicalis; Table III, medium pH 6.0) | Specificity: interference with C. tropicalis (Candida tropicalis; Table IV) | T. GLABRATA reading at 24 h (T. glabrata [1]) | Reading at 24 h (Candida albicans) | Reading at t = 24 h (C. tropicalis) | Reading at t = 24 h (T. glabrata [2]) | Reading at t = 24 h (C. albicans) | Reading at t = 24 h (C. krusei) | Specificity: interference with C. krusei (Candida krusei; Table I) | Reading at 24 h (Candida krusei; Table IV, medium pH 6.0) | reaction with isolated strains [3] |
| --- | --- | --- | --- | --- | --- | --- | --- | --- | --- | --- | --- | --- | --- |
| N=C(N)NCCC[C@H](NC(=O)[C@@H]1CCCN1C(=O)CN)C(=O)Nc1ccc([N+](=O)[O-])cc1 [H-Gly-L-Pro-L-Arg-pNA.2AcOH] (H-Gly-Pro-Arg-pNA) | (b) | ++++ | ++++ | (a) | - | ++++ | ++ | - | - | +++ | (c) | ++++ |  |
| O=C(Nc1ccc2ccccc2c1)[C@@H]1CCCN1 [H-L-Pro-NA] |  |  |  |  |  |  |  |  |  |  |  |  | positive reaction |
